The source of these data is ChEMBL document CHEMBL1201862, “PubChem BioAssay data set” (2004).

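These data come from cells grown in 96-well plates and exposed to compound for 48 hours at five concentrations. Here, GI50 denotes the concentration required for 50% inhibition of growth.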 Active and inactive are the calls of the source. No stated cut-off is given here; in the data, active = GI50 up to about 1.1 µM and inactive = higher. Some results are limits rather than exact numbers.

Test systems include MCF7; HOP-62; SK-MEL-28; CCRF-CEM; Malme-3M; SNB-75; HCT-116; SK-OV-3; HT-29; RPMI-8226; U-251; COLO 205; SK-MEL-5; NCI-H226; SR; K562; LXFL 529; HL-60; UO-31; HOP-92.
Assay in all cases: inhibition of tumour cell growth, NCI panel, 48 h

On to `O=C1c2ccccc2C(=O)c2c1ccc1conc21`, for which the GI50 in the test on MCF7 is 1.03 µM (active); in the test with HOP-62 it was 4.3 µM (inactive); in the test with SK-MEL-28, 3.41 µM (inactive); with CCRF-CEM it was 1.04 µM (active); with Malme-3M it was 2.48 µM (inactive); in the test with SNB-75 it was 7.59 µM (inactive). Besides, the GI50 in the test with HCT-116 was 1.52 µM (inactive); in the test with SK-OV-3, 6.46 µM (inactive); with HT-29, 4.37 µM (inactive); in the test on RPMI-8226 it was 0.875 µM (active); in the test with U-251, 1.62 µM (inactive); in the test on COLO 205, 5.65 µM (inactive). For the same compound, the GI50 is 1.92 µM (inactive) with SK-MEL-5; 7.06 µM (inactive) in the test on NCI-H226; 1.36 µM (inactive) in the test with SR; 1.85 µM (inactive) in the test on K562; 1.8 µM (inactive) with LXFL 529; 0.402 µM (active) with HL-60. In addition, the GI50 with UO-31 was 4.33 µM (inactive); with HOP-92, 1.07 µM (active).

For the compound `COC(=O)C1CC(c2ccc(Cl)cc2)=NO1` (centres undefined), the GI50 with HOP-62, with SK-MEL-28, with CCRF-CEM, in the test on Malme-3M, in the test on SNB-75 and in the test on HCT-116 was > 100 µM (inactive) each time. The GI50 with SK-OV-3, with HT-29, in the test with RPMI-8226, in the test with U-251, in the test with COLO 205 and in the test on SK-MEL-5 was > 100 µM (inactive) throughout. In addition, the GI50 in the test on NCI-H226, with SR, in the test with K562, in the test on LXFL 529, in the test with HL-60 and in the test on UO-31 was > 100 µM (inactive) each time. Also, the GI50 with HOP-92 was > 100 µM (inactive).

On to `Cc1cc(C)nc(NS(=O)(=O)c2ccc(Nc3c4ccc(Cl)cc4nc4c(C(=O)NCCN(C)C)cccc34)cc2)n1`, for which the GI50 in the test with HOP-62, in the test on SK-MEL-28, with CCRF-CEM, with Malme-3M, in the test on SNB-75 and in the test on HCT-116 was > 100 µM (inactive) in each case. Also, the GI50 in the test with SK-OV-3, in the test with HT-29, with RPMI-8226, in the test with U-251, with COLO 205 and with SK-MEL-5 was > 100 µM (inactive) throughout. Also, the GI50 in the test on NCI-H226 is > 100 µM (inactive); in the test with SR, 55.7 µM (inactive); with K562 it was 59.2 µM (inactive); in the test with LXFL 529, > 100 µM (inactive); with HL-60 it was > 100 µM (inactive); in the test on UO-31 it was > 100 µM (inactive). Moreover, in the test with HOP-92, the GI50 is 78 µM (inactive).

`O=C1C2c3[nH]c4ccccc4c3C3CCCCCC3C2C(=O)N1c1ccccc1` (centres undefined): the GI50 is 16.9 µM (inactive) in the test on HOP-62; > 59.8 µM (inactive) in the test on SK-MEL-28; 9.57 µM (inactive) in the test with CCRF-CEM; 9.31 µM (inactive) with Malme-3M; 3.44 µM (inactive) with SNB-75; 11.2 µM (inactive) in the test with HCT-116. The GI50 in the test on SK-OV-3 was 15.9 µM (inactive); in the test with HT-29, > 57.7 µM (inactive); with RPMI-8226, > 100 µM (inactive); in the test with U-251, 18.7 µM (inactive); with COLO 205 it was > 25.8 µM (inactive); in the test on SK-MEL-5 it was > 100 µM (inactive). The GI50 is 21.3 µM (inactive) in the test with NCI-H226; > 33.3 µM (inactive) with SR; > 55 µM (inactive) in the test on K562; > 86.9 µM (inactive) in the test on LXFL 529; > 45.6 µM (inactive) in the test on HL-60; 38.2 µM (inactive) in the test on UO-31. For the same compound, the GI50 with HOP-92 was 30.1 µM (inactive).

Turning to `CCCNCC(=O)O[C@]1(CC)C(=O)OCc2c1cc1n(c2=O)Cc2cc3ccccc3nc2-1`, the GI50 in the test on HOP-62 was < 0.01 µM (active); with SK-MEL-28 it was 2.31 µM (inactive); in the test on CCRF-CEM, < 0.01 µM (active); in the test with Malme-3M it was 0.334 µM (active); in the test with SNB-75 it was 0.0429 µM (active); in the test on HCT-116 it was 0.164 µM (active). For the same compound, the GI50 in the test on SK-OV-3 is 0.0679 µM (active); with HT-29, 0.274 µM (active); in the test on RPMI-8226, 0.0498 µM (active); in the test with U-251, < 0.01 µM (active); with COLO 205, 0.908 µM (active); in the test on SK-MEL-5, 0.119 µM (active). The GI50 was 0.0121 µM (active) in the test with NCI-H226; < 0.01 µM (active) in the test on SR; 0.181 µM (active) in the test with K562; 1.42 µM (inactive) in the test on LXFL 529; < 0.01 µM (active) in the test on HL-60; 0.0637 µM (active) in the test with UO-31. For the same compound, in the test with HOP-92, the GI50 is 0.325 µM (active).

On to `CCCCCCCCCCCC[N+]12CC[N+](CCN)(CC1)CC2`, for which the GI50 in the test on HOP-62 is 68.5 µM (inactive); in the test with SK-MEL-28 it was > 100 µM (inactive); in the test with CCRF-CEM, 73.6 µM (inactive); in the test on Malme-3M, > 100 µM (inactive); in the test with SNB-75, 28.2 µM (inactive); in the test with HCT-116, > 100 µM (inactive). Further, the GI50 was > 100 µM (inactive) in the test on SK-OV-3; 67.8 µM (inactive) in the test on HT-29; 28.2 µM (inactive) with RPMI-8226; 34.5 µM (inactive) in the test with U-251; 39.3 µM (inactive) in the test on COLO 205; > 100 µM (inactive) with SK-MEL-5. The GI50 is 63.7 µM (inactive) in the test on NCI-H226; 26.9 µM (inactive) in the test on SR; 32.1 µM (inactive) in the test on K562; 81.7 µM (inactive) in the test with LXFL 529; 27.7 µM (inactive) with HL-60; > 100 µM (inactive) in the test on UO-31. In addition, the GI50 with HOP-92 is 29.4 µM (inactive).

On to `CCOc1ccc(/C=C/c2cc(OC)c(OC)c(OC)c2)cc1`, for which the GI50 is 0.392 µM (active) with HOP-62; 0.83 µM (active) in the test with SK-MEL-28; 1.86 µM (inactive) in the test with CCRF-CEM; 0.893 µM (active) in the test on Malme-3M; 0.701 µM (active) in the test on SNB-75; 0.561 µM (active) with HCT-116. Moreover, the GI50 was 1.4 µM (inactive) in the test on SK-OV-3; 0.653 µM (active) in the test on HT-29; 0.601 µM (active) with RPMI-8226; 0.867 µM (active) with U-251; 0.635 µM (active) with COLO 205; 0.556 µM (active) in the test on SK-MEL-5. Also, the GI50 is 2.45 µM (inactive) with NCI-H226; 2.46 µM (inactive) in the test on SR; 0.458 µM (active) in the test on K562; 0.809 µM (active) with LXFL 529; 0.509 µM (active) in the test with HL-60; 17.1 µM (inactive) in the test with UO-31. The GI50 in the test on HOP-92 was 10.8 µM (inactive).
